Measurements: article PMC10187112 (Journal of Enzyme Inhibition and Medicinal Chemistry, 2023)
Like-named read-outs stand apart in the source and are kept apart here.

Tests used:
[1] = target: T1, human serotonin 5-HT2A receptor (Homo sapiens, UniProt P28223); assay: Competition radioligand binding, [3H]-Ketanserin, CHO-K1 membranes; settings: for Ki: human cloned 5-HT2A; for pKi 5-HT2A/pKi D2: ratio of pKi values; for inhibition at 10 µM: read-out: % inh. at 10 μM 5-HT2A
T1 construct: expressed in transfected cells; host or cells: CHO-K1
Description: (§1) Experiments were carried out in membranes from cell lines stably expressing the human cloned receptors.
(§2) Competition radioligand binding assays were performed on membranes isolated from cell lines stable expressing the cloned human receptors, which were either in-house or commercially available. […] Assays (250 μL assay final volume) were carried out in 96-well polypropylene plates in duplicate. In short, suspension of appropriate membrane protein was incubated in assay buffer with addition of the corresponding radioligand, in the presence or absence of tested compound or reference compound. […] After the incubation, the content of the test plates was transferred to 96-well plates with glass fibre filter GF/B or GF/C, previously pre-treated with polyethyleneimine (PEI), and rapidly filtered with the use of vacuum, followed by rapid washing with cold (4 °C) wash buffer. After that the filter plates were dried at 60 °C for 1 h. Then, 30 μL of liquid scintillation cocktail (UniverSol-ES, MP Biomedicals, Solon, OH) was added to each well of the filter plates and the radioactivity was measured in a MicroBeta2 microplate scintillation counter (PerkinElmer, Madrid, Spain).
(§3) Competition binding curves were fitted to a one-site competition binding model (Fit Ki) with the use of Prism 7 software (GraphPad, San Diego, CA). logKi (log of the equilibrium dissociation constant (Ki)) values were obtained after constraining the concentration of radioligand employed in the assay and its dissociation constant (KD) as determined in saturation radioligand binding assays.

[2] = target: T2, human serotonin 5-HT1A receptor (Homo sapiens, UniProt P08908); assay: Competition radioligand binding, [3H]-8-OH-DPAT, HEK293 membranes; settings: for Ki: human cloned 5-HT1A; for inhibition at 10 µM: read-out: % inh. at 10 μM 5-HT1A
T2 construct: expressed in transfected cells; host or cells: HEK293
T2 sequence (P08908 1-422): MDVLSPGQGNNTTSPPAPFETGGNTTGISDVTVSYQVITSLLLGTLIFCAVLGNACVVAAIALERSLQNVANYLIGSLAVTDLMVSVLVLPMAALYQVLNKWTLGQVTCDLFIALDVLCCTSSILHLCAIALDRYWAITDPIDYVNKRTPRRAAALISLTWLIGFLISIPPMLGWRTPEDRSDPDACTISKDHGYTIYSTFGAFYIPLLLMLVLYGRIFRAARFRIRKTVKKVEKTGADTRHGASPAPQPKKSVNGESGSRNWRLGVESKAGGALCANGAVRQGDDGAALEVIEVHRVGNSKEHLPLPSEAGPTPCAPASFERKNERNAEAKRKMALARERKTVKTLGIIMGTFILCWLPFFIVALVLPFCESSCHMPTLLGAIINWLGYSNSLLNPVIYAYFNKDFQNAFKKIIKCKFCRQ
Description: as §1, §2, §3

[3] = target: T3, human dopamine D2 (D2S) receptor (Homo sapiens, UniProt P14416); assay: Competition radioligand binding, [3H]-spiperone, CHO-K1 membranes; settings: for Ki: human cloned D2S; for inhibition at 10 µM: read-out: % inh. at 10 μM D2
T3 construct: expressed in transfected cells; host or cells: CHO-K1
Description: as §1, §2, §3

mice [4] = assay: Elevated plus maze (EPM) test (anxiety); settings: 40 mg/kg i.p., 60 min before test
human D2S receptor = human D2S receptor (Homo sapiens, UniProt P14416); assay: Functional assay of cAMP signalling (D2 antagonism), CHO-K1 cells; settings: for inhibition at 1 µM: CHO-K1, read-out: % of inhibition of 1 µM dopamine response; for inhibition at 10 µM: CHO-K1, read-out: D2 antagonism %inh. of DA response
mice [5] = assay: Spontaneous locomotor activity; settings: 20, 40, and 80 mg/kg i.p., recorded 30 min, 30 min after injection
[6] = target: T4, human dopamine D3 receptor (Homo sapiens, UniProt P35462); assay: Competition radioligand binding, [3H]-spiperone, CHO-K1 membranes
T4 construct: expressed in transfected cells; host or cells: CHO-K1
Description: as §2, §3

[7] = target: T5, human muscarinic M1 receptor (Homo sapiens, UniProt P11229); assay: Competition radioligand binding, [3H]-pirenzepine, CHO-K1 membranes; settings: read-out: % inh. at 10 μM M1
T5 construct: expressed in transfected cells; host or cells: CHO-K1
T5 sequence (P11229 1-460): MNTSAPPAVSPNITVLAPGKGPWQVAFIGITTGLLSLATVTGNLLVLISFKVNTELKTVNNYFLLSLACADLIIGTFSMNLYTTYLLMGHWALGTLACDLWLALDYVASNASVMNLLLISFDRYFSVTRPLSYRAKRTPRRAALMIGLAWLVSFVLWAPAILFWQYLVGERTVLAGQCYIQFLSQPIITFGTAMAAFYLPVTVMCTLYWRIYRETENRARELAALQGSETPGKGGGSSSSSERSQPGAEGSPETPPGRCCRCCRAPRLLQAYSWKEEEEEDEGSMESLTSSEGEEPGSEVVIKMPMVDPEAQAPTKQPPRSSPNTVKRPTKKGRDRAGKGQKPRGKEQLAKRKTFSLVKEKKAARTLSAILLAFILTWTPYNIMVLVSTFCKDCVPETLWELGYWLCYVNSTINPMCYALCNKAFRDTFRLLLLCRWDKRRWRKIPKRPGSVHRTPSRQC
Description: as §2, §3

[8] = target: T6, human dopamine D1 receptor (Homo sapiens, UniProt P21728); assay: Competition radioligand binding, [3H]-SCH-23390, CHO-K1 membranes
T6 construct: expressed in transfected cells; host or cells: CHO-K1
Description: Competition radioligand binding assays were performed on membranes isolated from cell lines stable expressing the cloned human receptors, which were either in-house or commercially available. […] Assays (250 μL assay final volume) were carried out in 96-well polypropylene plates in duplicate. In short, suspension of appropriate membrane protein was incubated in assay buffer with addition of the corresponding radioligand, in the presence or absence of tested compound or reference compound. […] Then, 30 μL of liquid scintillation cocktail (UniverSol-ES, MP Biomedicals, Solon, OH) was added to each well of the filter plates and the radioactivity was measured in a MicroBeta2 microplate scintillation counter (PerkinElmer, Madrid, Spain).
as §3

mice [9] = assay: Rota-rod test (motor coordination); type: in vivo; settings: 20, 40, and 80 mg/kg i.p., 60 min after treatment, 3 min
Description: To fully assess the impact of selected compounds on animals’ motor coordination, both compounds (at the same doses as were used for spontaneous locomotor activity measurements) were tested also in the rota-rod test. The applied protocol has been already validated in our laboratory[12]^,[62]^,[63]. […] The time spent by each mouse on the rota-rod was measured for 3 min. The additional aim of the rota-rod test was to confirm the appropriate selection of doses for further behavioural examination. […] After such confirmation, the above-mentioned doses were chosen for the rest of behavioural tests.

human 5-HT2A receptor = target: T7, human 5-HT2A receptor (Homo sapiens, UniProt P28223); assay: Functional assay of inositol phosphate production (5-HT2A antagonism), CHO-K1 cells; type: cell-based; settings: for inhibition at 10 µM: CHO-K1, read-out: 5-HT2A antagonism %inh. of 5-HT response; for Kb: read-out: 5-HT2A antagonism (IP signalling) Kb
T7 construct: expressed in transfected cells; host or cells: CHO-K1
Description: The activity of selected compounds at 5-HT2A receptors was investigated in cell-based functional assays of IP production in the CHO-K1 cell line stably expressing the cloned human 5-HT2A receptor also employed for the radioligand binding assays. Twenty-four hours before the experiment, cells in culture were seeded in complete growth medium prepared with dialysed foetal bovine serum, in half-area, white, 96-well tissue culture plates (Corning®, Fisher Scientific SL, Madrid, Spain). At the day of assay, plates were washed with assay buffer (kit stimulation buffer) and incubated with test compounds for 10 min at 37 °C. Test compounds were added to the assay plates from 7× working dilution intermediate plates that were prepared by means of acoustic noncontact dispensing of the compounds, keeping vehicle concentration (0.1% DMSO) constant in the assay. […] After this time, cellular IP levels were quantified by using the HTRF-based inositol monophosphate kit IP-One Gq kit (Cisbio, Bioassays, Codolet, France) following the manufacturer’s protocol. […] Basal IP levels were determined in control wells in the absence of compound and agonist. […] Kb value of the compounds was estimated as described above for functional assays of cAMP signalling at D2 receptors.

human 5-HT1A receptor = target: T8, human 5-HT1A receptor (Homo sapiens, UniProt P08908); assay: Functional assay of cAMP signalling (5-HT1A agonism), HEK293 cells; type: cell-based; settings: for inhibition at 10 µM: HEK293, 10 µM compound, 1 µM forskolin, read-out: 5-HT1A agonism %inh. of FSK response
T8 construct: expressed in transfected cells; host or cells: HEK293
T8 sequence (P08908 1-422): T2 sequence (P08908 1-422)
Description: The activity of selected compounds at 5-HT1A receptor was investigated in cell-based functional assays of cAMP signalling in the HEK293 cell line stably expressing the cloned human 5-HT1A receptor also employed for the radioligand binding assays. […] Test compounds were added to the assay plates from 5× working dilution intermediate plates, which were prepared by means of acoustic noncontact dispensing of the compounds, keeping vehicle concentration (0.1% DMSO) constant in the assay.

mice [10] = assay: Passive avoidance (PA) test (memory); settings: 40 mg/kg i.p., 60 min before test
mice [11] = assay: Amphetamine-induced hyperactivity; settings: p < 0.0001
[12] = target: T9, human histamine H1 receptor (Homo sapiens, UniProt P35367); assay: Competition radioligand binding, [3H]-pyrilamine, CHO-K1 membranes
T9 construct: expressed in transfected cells; host or cells: CHO-K1
Description: as §2, §3

human 5-HT7 receptor = target: T10, human 5-HT7 receptor (Homo sapiens, UniProt P34969); assay: Competition radioligand binding, [3H]-SB269970, HEK293 membranes
T10 construct: expressed in transfected cells; host or cells: HEK293
Description: as §2, §3

[13] = read-out: Ki 5-HT1A (converted)
[14] = mean ± SEM, read-out: pKi D2 (converted)

T1 sequence (P28223 whole entry): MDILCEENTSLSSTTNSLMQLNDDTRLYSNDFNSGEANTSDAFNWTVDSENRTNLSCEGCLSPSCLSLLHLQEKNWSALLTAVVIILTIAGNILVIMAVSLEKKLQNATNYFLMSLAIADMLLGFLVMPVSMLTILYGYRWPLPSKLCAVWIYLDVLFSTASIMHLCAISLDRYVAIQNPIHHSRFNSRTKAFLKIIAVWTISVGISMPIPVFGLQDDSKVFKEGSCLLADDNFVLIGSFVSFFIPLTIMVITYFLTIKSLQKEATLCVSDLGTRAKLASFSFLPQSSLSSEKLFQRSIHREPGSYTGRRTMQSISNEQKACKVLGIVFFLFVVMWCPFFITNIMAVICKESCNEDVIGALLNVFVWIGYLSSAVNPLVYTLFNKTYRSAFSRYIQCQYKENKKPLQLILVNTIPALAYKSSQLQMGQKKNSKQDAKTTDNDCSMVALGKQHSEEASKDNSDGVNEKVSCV
T7 sequence (P28223 whole entry): as above
T3 sequence (P14416 1-414 isoform P14416-2): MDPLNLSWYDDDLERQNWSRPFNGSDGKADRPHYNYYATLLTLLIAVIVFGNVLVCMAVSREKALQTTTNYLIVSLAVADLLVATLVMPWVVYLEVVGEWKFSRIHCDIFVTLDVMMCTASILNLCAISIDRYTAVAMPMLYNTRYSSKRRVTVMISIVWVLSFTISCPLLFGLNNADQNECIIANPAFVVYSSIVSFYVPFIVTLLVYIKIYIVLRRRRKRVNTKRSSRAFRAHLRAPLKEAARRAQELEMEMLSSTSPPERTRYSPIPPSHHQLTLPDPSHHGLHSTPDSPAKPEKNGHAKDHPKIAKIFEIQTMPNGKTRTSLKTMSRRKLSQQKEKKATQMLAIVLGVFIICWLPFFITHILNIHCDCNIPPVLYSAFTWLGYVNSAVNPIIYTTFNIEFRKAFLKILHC
human D2S receptor, sequence (P14416 1-414 isoform P14416-2): as above
T9 sequence (P35367 whole entry): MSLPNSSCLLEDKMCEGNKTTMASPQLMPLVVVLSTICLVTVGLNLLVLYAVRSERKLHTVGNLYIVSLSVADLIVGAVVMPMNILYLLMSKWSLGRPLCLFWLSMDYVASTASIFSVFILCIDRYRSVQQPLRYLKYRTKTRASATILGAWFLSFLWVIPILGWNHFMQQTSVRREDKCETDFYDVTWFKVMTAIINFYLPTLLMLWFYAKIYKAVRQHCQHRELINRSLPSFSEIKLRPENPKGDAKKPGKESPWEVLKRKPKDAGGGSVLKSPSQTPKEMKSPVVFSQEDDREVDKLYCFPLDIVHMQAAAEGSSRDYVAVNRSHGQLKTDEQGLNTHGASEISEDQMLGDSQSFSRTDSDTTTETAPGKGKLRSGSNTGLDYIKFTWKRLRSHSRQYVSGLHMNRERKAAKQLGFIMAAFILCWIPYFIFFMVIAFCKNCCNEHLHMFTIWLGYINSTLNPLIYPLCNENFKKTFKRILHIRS
T4 sequence (P35462 whole entry): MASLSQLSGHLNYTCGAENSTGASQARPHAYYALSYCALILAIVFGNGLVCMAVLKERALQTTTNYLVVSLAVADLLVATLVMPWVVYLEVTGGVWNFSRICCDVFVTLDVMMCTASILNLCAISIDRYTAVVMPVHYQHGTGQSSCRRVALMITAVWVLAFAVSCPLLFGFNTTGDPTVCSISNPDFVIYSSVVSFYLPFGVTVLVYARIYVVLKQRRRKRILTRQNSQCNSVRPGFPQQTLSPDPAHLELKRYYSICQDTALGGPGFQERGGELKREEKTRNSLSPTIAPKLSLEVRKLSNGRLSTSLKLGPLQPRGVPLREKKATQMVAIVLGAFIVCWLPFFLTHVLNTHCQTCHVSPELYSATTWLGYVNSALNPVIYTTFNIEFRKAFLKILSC
T10 sequence (P34969 whole entry): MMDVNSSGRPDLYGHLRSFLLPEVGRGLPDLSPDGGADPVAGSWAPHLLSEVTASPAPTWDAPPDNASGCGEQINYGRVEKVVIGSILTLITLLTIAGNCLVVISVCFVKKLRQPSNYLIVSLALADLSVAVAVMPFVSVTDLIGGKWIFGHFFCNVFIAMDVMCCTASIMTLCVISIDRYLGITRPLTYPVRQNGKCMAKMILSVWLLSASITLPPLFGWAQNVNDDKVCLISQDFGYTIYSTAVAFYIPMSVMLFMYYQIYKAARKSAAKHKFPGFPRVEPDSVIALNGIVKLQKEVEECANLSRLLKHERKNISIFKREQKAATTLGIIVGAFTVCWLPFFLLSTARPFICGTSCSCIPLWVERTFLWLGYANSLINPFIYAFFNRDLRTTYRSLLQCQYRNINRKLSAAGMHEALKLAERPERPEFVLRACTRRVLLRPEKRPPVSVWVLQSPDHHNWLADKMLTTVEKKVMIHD
T6 sequence (P21728 whole entry): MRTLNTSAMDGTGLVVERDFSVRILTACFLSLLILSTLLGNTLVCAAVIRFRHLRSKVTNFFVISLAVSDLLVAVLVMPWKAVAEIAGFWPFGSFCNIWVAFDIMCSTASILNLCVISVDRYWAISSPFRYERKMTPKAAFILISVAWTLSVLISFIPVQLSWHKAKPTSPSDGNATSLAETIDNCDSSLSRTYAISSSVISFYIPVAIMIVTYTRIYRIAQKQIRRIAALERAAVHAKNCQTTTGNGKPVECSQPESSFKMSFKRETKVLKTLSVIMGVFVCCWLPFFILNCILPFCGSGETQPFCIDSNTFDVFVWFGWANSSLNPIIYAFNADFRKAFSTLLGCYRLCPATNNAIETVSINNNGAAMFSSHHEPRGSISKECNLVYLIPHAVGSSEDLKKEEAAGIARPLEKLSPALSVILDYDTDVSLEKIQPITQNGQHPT

Row | SMILES | Ki [1] | pKi 5-HT2A/pKi D2 [1] | Ki [2, 13] | Ki ([3]; read-out: Ki D2 (converted)) | also measured
1 | COc1ccccc1N1CCN(CCCNC(=O)c2n[nH]c3ccccc23)CC1 [Compound 2, N-(3-(4-(2-methoxyphenyl)piperazin-1-yl)propyl)-1H-indazole-3-carboxamide] | 372 nM | 0.84 | 22.9 nM | 22.7 nM | 
2 | COc1cccc(N2CCN(CCCNC(=O)c3n[nH]c4ccccc34)CC2)c1 [Compound 3, N-(3-(4-(3-methoxyphenyl)piperazin-1-yl)propyl)-1H-indazole-3-carboxamide] | 184 nM | 1.04 | 110 nM | 315 nM | 
3 | COc1ccc(N2CCN(CCCNC(=O)c3n[nH]c4ccccc34)CC2)cc1 [Compound 4, N-(3-(4-(4-methoxyphenyl)piperazin-1-yl)propyl)-1H-indazole-3-carboxamide] | 491 nM |  |  |  | inhibition at 10 µM [2]: 58.4 ± 1.8%; inhibition at 10 µM [3]: 46 ± 6%
4 | O=C(NCCCN1CCN(c2ccccn2)CC1)c1n[nH]c2ccccc12 [Compound 5, N-(3-(4-(pyridin-2-yl)piperazin-1-yl)propyl)-1H-indazole-3-carboxamide] | 132 nM | 1.06 | 113 nM | 339 nM | 
5 | O=C(NCCCN1CCN(c2cccnc2)CC1)c1n[nH]c2ccccc12 [Compound 6, N-(3-(4-(pyridin-3-yl)piperazin-1-yl)propyl)-1H-indazole-3-carboxamide] | 2650 nM | 0.93 | 1380 nM | 1010 nM | 
6 | O=C(NCCCN1CCN(c2ccncc2)CC1)c1n[nH]c2ccccc12 [Compound 7, N-(3-(4-(pyridin-4-yl)piperazin-1-yl)propyl)-1H-indazole-3-carboxamide] |  |  |  |  | inhibition at 10 µM [1]: 0%; inhibition at 10 µM [2]: 27.9 ± 2.7%; inhibition at 10 µM [3]: 0%
7 | O=C(NCCCN1CCN(c2ncccn2)CC1)c1n[nH]c2ccccc12 [Compound 8, N-(3-(4-(pyrimidin-2-yl)piperazin-1-yl)propyl)-1H-indazole-3-carboxamide] | 807 nM | 0.96 | 238 nM | 480 nM | 
8 | O=C(NCCCN1CCN(c2ccccc2F)CC1)c1n[nH]c2ccccc12 [Compound 9, N-(3-(4-(2-fluorophenyl)piperazin-1-yl)propyl)-1H-indazole-3-carboxamide] | 117 nM | 0.94 | 135 nM | 42.2 nM | Ki [3, 14]: 41.7 nM
9 | O=C(NCCCN1CCN(c2cccc(F)c2)CC1)c1n[nH]c2ccccc12 [Compound 10, N-(3-(4-(3-fluorophenyl)piperazin-1-yl)propyl)-1H-indazole-3-carboxamide] | 94.4 nM | 1.07 | 114 nM |  | Effect on anxiety in EPM test (mice [4]): no statistically significant effect on the EPM performance; Kb (human D2S receptor): 31.2 nM; inhibition at 1 µM (human D2S receptor): 50.8 ± 5.4%; inhibition at 10 µM (human D2S receptor): 52.6 ± 9.8%; Spontaneous locomotor activity (mice [5]): did not induce statistically significant changes; Ki [6]: 719 nM; inhibition at 10 µM [7]: 0%; Ki [8]: 181 nM; Motor coordination (rota-rod) (mice [9]): lack of statistically significant difference; inhibition at 10 µM (human 5-HT2A receptor): 96.8 ± 2%; Kb (human 5-HT2A receptor): 101 ± 31 nM; EC50 (human 5-HT1A receptor): 356 ± 83 nM; inhibition at 10 µM (human 5-HT1A receptor): 90.2 ± 4.1%; Effect on PA performance (memory acquisition) (mice [10]): no statistically significant effect on PA performance; Effect on amphetamine-induced hyperactivity (mice [11]; 40 mg/kg i.p., 30 min before amphetamine 5 mg/kg s.c.): significantly reduced hyperactivity induced by amphetamine; Ki [12]: 1000 nM; Ki ([2]; mean ± SEM, read-out: pKi 5-HT1A (converted)): 112 nM; Ki (human 5-HT7 receptor): 589 nM
10 | O=C(NCCCN1CCN(c2ccc(F)cc2)CC1)c1n[nH]c2ccccc12 [Compound 11, N-(3-(4-(4-fluorophenyl)piperazin-1-yl)propyl)-1H-indazole-3-carboxamide] | 12.6 nM | 1.24 | 607 nM | 450 nM | Kb (human D2S receptor): 99.1 nM; inhibition at 1 µM (human D2S receptor): 21.3 ± 4.3%; inhibition at 10 µM (human D2S receptor): 49.7 ± 8%; Ki [6]: 5010 nM; inhibition at 10 µM [7]: 0%; inhibition at 10 µM (human 5-HT2A receptor): 103 ± 2.2%; Kb (human 5-HT2A receptor): 19.2 ± 7.2 nM; EC50 (human 5-HT1A receptor): 5600 ± 1200 nM; inhibition at 10 µM (human 5-HT1A receptor): 75.3 ± 6.8%; Ki [12]: 364 nM; Ki (human 5-HT7 receptor): 196 nM
11 | O=C(NCCCN1CCN(c2ccccc2C(F)(F)F)CC1)c1n[nH]c2ccccc12 [Compound 12, N-(3-(4-(2-(trifluoromethyl)phenyl)piperazin-1-yl)propyl)-1H-indazole-3-carboxamide] | 832 nM | 0.83 | 423 nM | 45.2 nM | Ki [3, 14]: 44.7 nM
12 | O=C(NCCCN1CCN(c2ccccc2Cl)CC1)c1n[nH]c2ccccc12 [Compound 13, N-(3-(4-(2-chlorophenyl)piperazin-1-yl)propyl)-1H-indazole-3-carboxamide] | 134 nM | 0.96 | 107 nM | 69.7 nM | 
13 | CSc1ccccc1N1CCN(CCCNC(=O)c2n[nH]c3ccccc23)CC1 [Compound 14, N-(3-(4-(2-(methylthio)phenyl)piperazin-1-yl)propyl)-1H-indazole-3-carboxamide] | 217 nM | 0.82 | 12.4 nM | 7.05 nM | 
14 | CCOc1ccccc1N1CCN(CCCNC(=O)c2n[nH]c3ccccc23)CC1 [Compound 15, N-(3-(4-(2-ethoxyphenyl)piperazin-1-yl)propyl)-1H-indazole-3-carboxamide] | 280 nM | 0.85 | 46.9 nM | 19.8 nM | 
15 | O=C(NCCCN1CCN(C2CCCCC2)CC1)c1n[nH]c2ccccc12 [Compound 16, N-(3-(4-cyclohexylpiperazin-1-yl)propyl)-1H-indazole-3-carboxamide] |  |  |  |  | inhibition at 10 µM [1]: 25.6 ± 9%; inhibition at 10 µM [2]: 56.7 ± 1.6%; inhibition at 10 µM [3]: 19 ± 6.8%
16 | CC(N)Cc1ccccc1 (stereo not shown) [amphetamine, reference compound] |  |  |  |  | Locomotor activity vs. vehicle group (mice [11]; 5 mg/kg s.c., recorded 30 min): increased locomotor activity
